Activity calls are given as the source filed them. How the calls were made is not given here.
System: CCRIS mutagenicity, Ames/micronucleus/aberration tests
Assay: CCRIS mutagenicity studies
Details: Test System: AMES SALMONELLA TYPHIMURIUM

Measured: mutagenic call

FC(F)(F)c1ccccc1Cl
inactive: Strain/Indicator: TA97, Metabolic Activation: HAMSTER, LIVER, S-9, AROCLOR 1254 (10%), Method: PREINCUBATION inactive; negative | Strain/Indicator: TA97, Metabolic Activation: HAMSTER, LIVER, S-9, AROCLOR 1254 (30%), Method: PREINCUBATION inactive; negative | Strain/Indicator: TA97, Metabolic Activation: NONE, Method: PREINCUBATION inactive; negative | Strain/Indicator: TA97, Metabolic Activation: RAT, LIVER, S-9, AROCLOR 1254 (10%), Method: PREINCUBATION inactive; negative | Strain/Indicator: TA97, Metabolic Activation: RAT, LIVER, S-9, AROCLOR 1254 (30%), Method: PREINCUBATION inactive; negative | Strain/Indicator: TA98, Metabolic Activation: HAMSTER, LIVER, S-9, AROCLOR 1254 (10%), Method: PREINCUBATION inactive; negative | Strain/Indicator: TA98, Metabolic Activation: HAMSTER, LIVER, S-9, AROCLOR 1254 (30%), Method: PREINCUBATION inactive; negative | Strain/Indicator: TA98, Metabolic Activation: NONE, Method: PREINCUBATION inactive; negative | Strain/Indicator: TA98, Metabolic Activation: NONE, Method: STANDARD PLATE inactive; negative | Strain/Indicator: TA98, Metabolic Activation: RAT, LIVER, S-9, AROCLOR 1254 (10%), Method: PREINCUBATION inactive; negative | Strain/Indicator: TA98, Metabolic Activation: RAT, LIVER, S-9, AROCLOR 1254 (30%), Method: PREINCUBATION inactive; negative | Strain/Indicator: TA98, Metabolic Activation: RAT, LIVER, S-9, AROCLOR 1254, Method: STANDARD PLATE inactive; negative | Strain/Indicator: TA100, Metabolic Activation: HAMSTER, LIVER, S-9, AROCLOR 1254 (10%), Method: PREINCUBATION inactive; negative | Strain/Indicator: TA100, Metabolic Activation: HAMSTER, LIVER, S-9, AROCLOR 1254 (30%), Method: PREINCUBATION inactive; negative | Strain/Indicator: TA100, Metabolic Activation: NONE, Method: PREINCUBATION inactive; negative | Strain/Indicator: TA100, Metabolic Activation: NONE, Method: STANDARD PLATE inactive; negative | Strain/Indicator: TA100, Metabolic Activation: RAT, LIVER, S-9, AROCLOR 1254 (10%), Method: PREINCUBATION inactive; negative | Strain/Indicator: TA100, Metabolic Activation: RAT, LIVER, S-9, AROCLOR 1254 (30%), Method: PREINCUBATION inactive; negative | Strain/Indicator: TA100, Metabolic Activation: RAT, LIVER, S-9, AROCLOR 1254, Method: STANDARD PLATE inactive; negative | Strain/Indicator: TA1535, Metabolic Activation: HAMSTER, LIVER, S-9, AROCLOR 1254 (10%), Method: PREINCUBATION inactive; negative | Strain/Indicator: TA1535, Metabolic Activation: HAMSTER, LIVER, S-9, AROCLOR 1254 (30%), Method: PREINCUBATION inactive; negative | Strain/Indicator: TA1535, Metabolic Activation: NONE, Method: PREINCUBATION inactive; negative | Strain/Indicator: TA1535, Metabolic Activation: NONE, Method: STANDARD PLATE inactive; negative | Strain/Indicator: TA1535, Metabolic Activation: RAT, LIVER, S-9, AROCLOR 1254 (10%), Method: PREINCUBATION inactive; negative | Strain/Indicator: TA1535, Metabolic Activation: RAT, LIVER, S-9, AROCLOR 1254 (30%), Method: PREINCUBATION inactive; negative | Strain/Indicator: TA1535, Metabolic Activation: RAT, LIVER, S-9, AROCLOR 1254, Method: STANDARD PLATE inactive; negative | Strain/Indicator: TA1537, Metabolic Activation: HAMSTER, LIVER, S-9, AROCLOR 1254 (30%), Method: PREINCUBATION inactive; negative | Strain/Indicator: TA1537, Metabolic Activation: NONE, Method: PREINCUBATION inactive; negative | Strain/Indicator: TA1537, Metabolic Activation: NONE, Method: STANDARD PLATE inactive; negative | Strain/Indicator: TA1537, Metabolic Activation: RAT, LIVER, S-9, AROCLOR 1254 (30%), Method: PREINCUBATION inactive; negative | Strain/Indicator: TA1537, Metabolic Activation: RAT, LIVER, S-9, AROCLOR 1254, Method: STANDARD PLATE inactive; negative | Strain/Indicator: TA1538, Metabolic Activation: NONE, Method: STANDARD PLATE inactive; negative | Strain/Indicator: TA1538, Metabolic Activation: RAT, LIVER, S-9, AROCLOR 1254, Method: STANDARD PLATE inactive; negative

Source: PubChem BioAssay AID1259407 (Chemical Carcinogenesis Research Information System (CCRIS), 2018)
